Results from US10646570B2, “Induced photodynamic therapy using nanoparticle scintillators as transducers” (UNIVERSITY OF GEORGIA RESEARCH FOUNDATION, INC., priority 2014, dated 2020).

Assay: 1O2 production in solutions, SOSG indicator, X-ray irradiation
Conditions: either with or without X-ray
Protocol: 1 mL of 0.05 mg M-SAO@SiO2/mL was added in a quartz cuvette (equilibrated with air at room temperature) containing 1 μM of SOSG. For controls, SAO, MC540, and water were analyzed. The solutions were irradiated by X-ray (at an irradiance of 1 Sv/h for 20 min, with a 1-min intermission after each 5-min irradiation cycle. The fluorescence signals (ex/em: 504/525 nm) were measured on a Hitachi F-7000 fluorescence spectrophotometer.
There is a significant overlap between the XEOL of SAO and the excitation wavelength of MC540 (FIG. 9A). Therefore, the ability of M-SAO@SiO2 nanoparticles irradiated by X-ray to relay energy in the form of visible photons to MC540 and as a result, producing ^1O2 was investigated. A common ^1O2 indicator, singlet oxygen sensor green (SOSG, Invitrogen) was used to investigate this effect. SOSG is a fluorescent compound which undergoes a structural change in the presence of ^1O2. The process is accompanied by an increase of fluorescence (ex/em: 504/525 nm). Therefore, by measuring the fluorescence change, the ^1O2 generation in solutions or cells can be monitored. Using SOSG, ^1O2 generation with a M-SAO@SiO2 nanoparticle solution (50 μg/mL) under X-ray irradiation was studied (1 Sv/h, FIG. 9B). Compared to the background, the intensity of 525 nm fluorescence was increased by 8, 25, 35, and 45% after 5, 10, 15, and 20 min X-ray irradiation, respectively (FIG. 9B).

Question: With `CCCCN1C(=O)C(=C/C=C/C=C2\Oc3ccccc3N2CCCS(=O)(=O)[O-])C(=O)N(CCCC)C1=S.[Na+]` [MC540, merocyanine 540] as the compound, how does the “increase in fluorescence (1O2, SOSG)” value read?
Answer: minimal increase in fluorescence
